According to PMC10209615, “Pharmacological inhibition of LSD1 suppresses growth of hepatocellular carcinoma by inducing GADD45B” (MedComm, 2023):

Columns and labels:
[1] = biological target: T1, ARK5 (Homo sapiens, UniProt O60285); test: Kinase activity detection (Eurofins); format: biochemical; settings: ZY0511 1 µM
T1 construct: purchased Eurofins Pharma Discovery Services (KinaseProfiler)
Experimental: (§1) The activity of ZY0511 against 104 cancer‐related kinases was carried out by Eurofins Pharma Discovery Services (Celle Lévescault, France).

[2] = biological target: T2, CK1γ3 (Homo sapiens, UniProt Q9Y6M4); test: Kinase activity detection (Eurofins); format: biochemical; settings: ZY0511 1 µM, read-out: Inhibition rate
T2 construct: purchased Eurofins Pharma Discovery Services (KinaseProfiler)
Experimental: as §1

[3] = biological target: T3, CSK (Homo sapiens, UniProt P41240); test: Kinase activity detection (Eurofins); format: biochemical; settings: ZY0511 1 µM, read-out: Inhibition rate
T3 construct: purchased Eurofins Pharma Discovery Services (KinaseProfiler)
Experimental: as §1

[4] = biological target: T4, DAPK1 (Homo sapiens, UniProt P53355); test: Kinase activity detection (Eurofins); format: biochemical; settings: ZY0511 1 µM, read-out: Activation rate
T4 construct: purchased Eurofins Pharma Discovery Services (KinaseProfiler)
Experimental: as §1

[5] = biological target: T5, DDR2 (Homo sapiens, UniProt Q16832); test: Kinase activity detection (Eurofins); format: biochemical; settings: ZY0511 1 µM, read-out: Inhibition rate
T5 construct: purchased Eurofins Pharma Discovery Services (KinaseProfiler)
Experimental: as §1

[6] = biological target: T6, DNA-PK (Homo sapiens, UniProt P78527); test: Kinase activity detection (Eurofins); format: biochemical
T6 construct: purchased Eurofins Pharma Discovery Services
Experimental: as §1

[7] = biological target: T7, EphB4 (Homo sapiens, UniProt P54760); test: Kinase activity detection (Eurofins); format: biochemical; settings: ZY0511 1 µM, read-out: Activation rate
T7 construct: purchased Eurofins Pharma Discovery Services (KinaseProfiler)
Experimental: as §1

[8] = biological target: T8, FAK (Homo sapiens, UniProt Q05397); test: Kinase activity detection (Eurofins); format: biochemical; settings: ZY0511 1 µM, read-out: Inhibition rate
T8 construct: purchased Eurofins Pharma Discovery Services
Experimental: as §1

[9] = biological target: T9, FGFR4 (Homo sapiens, UniProt P22455); test: Kinase activity detection (Eurofins); format: biochemical; settings: ZY0511 1 µM, read-out: Inhibition rate
T9 construct: purchased Eurofins Pharma Discovery Services
Experimental: as §1

[10] = biological target: T10, Fer (Homo sapiens, UniProt P16591); test: Kinase activity detection (Eurofins); format: biochemical; settings: ZY0511 1 µM, read-out: Inhibition rate
T10 construct: purchased Eurofins Pharma Discovery Services (KinaseProfiler)
Experimental: as §1

[11] = biological target: T11, Fes (Homo sapiens, UniProt P07332); test: Kinase activity detection (Eurofins); format: biochemical; settings: ZY0511 1 µM, read-out: Inhibition rate
T11 construct: purchased Eurofins Pharma Discovery Services (KinaseProfiler)
Experimental: as §1

[12] = biological target: T12, Flt3 (Homo sapiens, UniProt P36888); test: Kinase activity detection (Eurofins); format: biochemical; settings: ZY0511 1 µM, read-out: Inhibition rate
T12 construct: purchased Eurofins Pharma Discovery Services (KinaseProfiler)
Experimental: as §1

[13] = biological target: T13, HIPK2 (Homo sapiens, UniProt Q9H2X6); test: Kinase activity detection (Eurofins); format: biochemical; settings: ZY0511 1 µM, read-out: Inhibition rate
T13 construct: purchased Eurofins Pharma Discovery Services
Experimental: as §1

[14] = biological target: T14, IGF-1R (Homo sapiens, UniProt P08069); test: Kinase activity detection (Eurofins); format: biochemical
T14 construct: purchased Eurofins Pharma Discovery Services
Experimental: as §1

[15] = biological target: T15, IKKα (Homo sapiens, UniProt O15111); test: Kinase activity detection (Eurofins); format: biochemical; settings: ZY0511 1 µM, read-out: Activation rate
T15 construct: purchased Eurofins Pharma Discovery Services (KinaseProfiler)
Experimental: as §1

[16] = biological target: T16, IKKε (Homo sapiens, UniProt Q14164); test: Kinase activity detection (Eurofins); format: biochemical; settings: ZY0511 1 µM, read-out: Activation rate
T16 construct: purchased Eurofins Pharma Discovery Services (KinaseProfiler)
Experimental: as §1

[17] = biological target: T17, LKB1 (Homo sapiens, UniProt Q15831); test: Kinase activity detection (Eurofins); format: biochemical; settings: ZY0511 1 µM, read-out: Inhibition rate
T17 construct: purchased Eurofins Pharma Discovery Services (KinaseProfiler)
Experimental: as §1

[18] = biological target: T18, MEK1 (Homo sapiens, UniProt Q02750); test: Kinase activity detection (Eurofins); format: biochemical; settings: ZY0511 1 µM, read-out: Inhibition rate
T18 construct: purchased Eurofins Pharma Discovery Services (KinaseProfiler)
Experimental: as §1

[19] = biological target: T19, Met (Homo sapiens, UniProt P08581); test: Kinase activity detection (Eurofins); format: biochemical; settings: ZY0511 1 µM, read-out: Inhibition rate
T19 construct: purchased Eurofins Pharma Discovery Services (KinaseProfiler)
Experimental: as §1

[20] = biological target: T20, NIM1 (Homo sapiens, UniProt Q8IY84); test: Kinase activity detection (Eurofins); format: biochemical; settings: ZY0511 1 µM, read-out: Inhibition rate
T20 construct: purchased Eurofins Pharma Discovery Services
Experimental: as §1

[21] = biological target: T21, PI3 Kinase (p110δ/p85α) (Homo sapiens, UniProt O00329); test: Kinase activity detection (Eurofins); format: biochemical; settings: ZY0511 1 µM, read-out: Inhibition rate
T21 construct: purchased Eurofins Pharma Discovery Services (KinaseProfiler)
Experimental: as §1

[22] = biological target: T22, PKBα (Homo sapiens, UniProt P31749); test: Kinase activity detection (Eurofins); format: biochemical; settings: ZY0511 1 µM, read-out: Inhibition rate
T22 construct: purchased Eurofins Pharma Discovery Services (KinaseProfiler)
Experimental: as §1

[23] = biological target: T23, PKCµ (Homo sapiens, UniProt Q15139); test: Kinase activity detection (Eurofins); format: biochemical; settings: ZY0511 1 µM, read-out: Inhibition rate
T23 construct: purchased Eurofins Pharma Discovery Services
Experimental: as §1

[24] = biological target: T24, Ros (Homo sapiens, UniProt P08922); test: Kinase activity detection (Eurofins); format: biochemical; settings: ZY0511 1 µM, read-out: Inhibition rate
T24 construct: purchased Eurofins Pharma Discovery Services
Experimental: as §1

[25] = biological target: T25, Snk (Homo sapiens, UniProt Q9NYY3); test: Kinase activity detection (Eurofins); format: biochemical; settings: ZY0511 1 µM, read-out: Inhibition rate
T25 construct: purchased Eurofins Pharma Discovery Services (KinaseProfiler)
Experimental: as §1

[26] = biological target: T26, TAK1 (Homo sapiens, UniProt O43318); test: Kinase activity detection (Eurofins); format: biochemical; settings: ZY0511 1 µM, read-out: Inhibition rate
T26 construct: purchased Eurofins Pharma Discovery Services
Experimental: as §1

[27] = biological target: T27, Tie2 (Homo sapiens, UniProt Q02763); test: Kinase activity detection (Eurofins); format: biochemical; settings: ZY0511 1 µM, read-out: Inhibition rate
T27 construct: purchased Eurofins Pharma Discovery Services (KinaseProfiler)
Experimental: as §1

[28] = biological target: T28, TrkA (Homo sapiens, UniProt P04629); test: Kinase activity detection (Eurofins); format: biochemical; settings: ZY0511 1 µM, read-out: Activation rate
T28 construct: purchased Eurofins Pharma Discovery Services (KinaseProfiler)
Experimental: as §1

[29] = biological target: T29, TrkC (Homo sapiens, UniProt Q16288); test: Kinase activity detection (Eurofins); format: biochemical; settings: ZY0511 1 µM, read-out: Inhibition rate
T29 construct: purchased Eurofins Pharma Discovery Services (KinaseProfiler)
Experimental: as §1

[30] = biological target: T30, Yes (Homo sapiens, UniProt P07947); test: Kinase activity detection (Eurofins); format: biochemical; settings: ZY0511 1 µM, read-out: Inhibition rate
T30 construct: purchased Eurofins Pharma Discovery Services
Experimental: as §1

[31] = biological target: T31, ZAP-70 (Homo sapiens, UniProt P43403); test: Kinase activity detection (Eurofins); format: biochemical; settings: ZY0511 1 µM, read-out: Activation rate
T31 construct: purchased Eurofins Pharma Discovery Services (KinaseProfiler)
Experimental: as §1

[32] = biological target: T32, cKit (V560G) (Homo sapiens, UniProt P10721, V560G); test: Kinase activity detection (Eurofins); format: biochemical; settings: ZY0511 1 µM, read-out: Inhibition rate
T32 construct: purchased Eurofins Pharma Discovery Services (KinaseProfiler)
Experimental: as §1

[33] = biological target: T33, cSRC (Homo sapiens, UniProt P12931); test: Kinase activity detection (Eurofins); format: biochemical; settings: ZY0511 1 µM, read-out: Activation rate
T33 construct: purchased Eurofins Pharma Discovery Services (KinaseProfiler)
Experimental: as §1

[34] = tested on: Hep3B; test: Apoptosis analysis (Annexin V, flow cytometry); format: cell-based, human; settings: 48 h
Experimental: (§2) Cells were fixed using 70% ethanol and stained with a Cell Cycle Detection Kit (KeyGEN). For apoptosis analysis, cells were exposed to ZY0511 alone or in combination with DTP3 for 48 h. Cells were harvested and stained with PE Annexin V Apoptosis Detection Kit (BD). The cell cycle or apoptosis induction was detected by using a flow cytometer (Agilent NovoCyte). Results were assessed by NovoExpress software (Agilent NovoCyte).

[35] = tested on: HepG2; test: Apoptosis analysis (Annexin V, flow cytometry); format: cell-based, human; settings: HepG2, 48 h
Experimental: as §2

T14 sequence (P08069 31-1367, species assumed): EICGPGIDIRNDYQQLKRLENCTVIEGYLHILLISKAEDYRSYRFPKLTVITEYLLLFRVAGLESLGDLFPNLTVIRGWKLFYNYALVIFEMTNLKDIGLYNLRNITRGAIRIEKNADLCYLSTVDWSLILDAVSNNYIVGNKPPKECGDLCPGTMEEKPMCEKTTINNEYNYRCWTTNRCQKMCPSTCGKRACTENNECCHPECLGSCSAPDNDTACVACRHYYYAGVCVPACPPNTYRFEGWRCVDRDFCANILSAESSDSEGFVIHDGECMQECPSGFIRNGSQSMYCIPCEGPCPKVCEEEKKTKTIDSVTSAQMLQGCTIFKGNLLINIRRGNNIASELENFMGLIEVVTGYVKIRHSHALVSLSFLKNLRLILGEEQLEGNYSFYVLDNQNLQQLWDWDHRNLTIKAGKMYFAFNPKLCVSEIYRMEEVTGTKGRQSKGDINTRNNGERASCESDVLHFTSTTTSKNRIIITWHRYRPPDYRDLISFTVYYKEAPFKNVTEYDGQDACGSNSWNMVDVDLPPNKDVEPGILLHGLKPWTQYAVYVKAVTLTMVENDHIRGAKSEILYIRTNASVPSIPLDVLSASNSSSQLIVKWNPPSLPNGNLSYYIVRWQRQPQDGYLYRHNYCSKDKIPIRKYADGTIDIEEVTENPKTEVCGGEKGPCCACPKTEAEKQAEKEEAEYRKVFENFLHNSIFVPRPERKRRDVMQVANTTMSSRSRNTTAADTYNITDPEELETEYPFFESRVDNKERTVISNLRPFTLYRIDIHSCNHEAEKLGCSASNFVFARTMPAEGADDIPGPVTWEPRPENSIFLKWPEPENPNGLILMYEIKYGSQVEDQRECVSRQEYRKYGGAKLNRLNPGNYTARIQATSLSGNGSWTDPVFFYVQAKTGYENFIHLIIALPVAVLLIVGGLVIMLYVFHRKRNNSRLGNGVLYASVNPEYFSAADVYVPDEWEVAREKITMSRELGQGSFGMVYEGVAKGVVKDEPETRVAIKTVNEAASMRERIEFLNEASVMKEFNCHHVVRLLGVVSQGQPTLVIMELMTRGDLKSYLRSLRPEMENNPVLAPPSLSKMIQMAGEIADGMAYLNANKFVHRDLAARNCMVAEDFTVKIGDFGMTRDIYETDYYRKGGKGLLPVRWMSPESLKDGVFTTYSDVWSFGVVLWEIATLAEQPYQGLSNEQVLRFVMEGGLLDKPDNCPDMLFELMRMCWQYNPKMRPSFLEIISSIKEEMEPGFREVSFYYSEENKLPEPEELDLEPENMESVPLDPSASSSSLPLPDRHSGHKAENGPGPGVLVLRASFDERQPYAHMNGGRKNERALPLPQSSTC
T7 sequence (P54760 16-987): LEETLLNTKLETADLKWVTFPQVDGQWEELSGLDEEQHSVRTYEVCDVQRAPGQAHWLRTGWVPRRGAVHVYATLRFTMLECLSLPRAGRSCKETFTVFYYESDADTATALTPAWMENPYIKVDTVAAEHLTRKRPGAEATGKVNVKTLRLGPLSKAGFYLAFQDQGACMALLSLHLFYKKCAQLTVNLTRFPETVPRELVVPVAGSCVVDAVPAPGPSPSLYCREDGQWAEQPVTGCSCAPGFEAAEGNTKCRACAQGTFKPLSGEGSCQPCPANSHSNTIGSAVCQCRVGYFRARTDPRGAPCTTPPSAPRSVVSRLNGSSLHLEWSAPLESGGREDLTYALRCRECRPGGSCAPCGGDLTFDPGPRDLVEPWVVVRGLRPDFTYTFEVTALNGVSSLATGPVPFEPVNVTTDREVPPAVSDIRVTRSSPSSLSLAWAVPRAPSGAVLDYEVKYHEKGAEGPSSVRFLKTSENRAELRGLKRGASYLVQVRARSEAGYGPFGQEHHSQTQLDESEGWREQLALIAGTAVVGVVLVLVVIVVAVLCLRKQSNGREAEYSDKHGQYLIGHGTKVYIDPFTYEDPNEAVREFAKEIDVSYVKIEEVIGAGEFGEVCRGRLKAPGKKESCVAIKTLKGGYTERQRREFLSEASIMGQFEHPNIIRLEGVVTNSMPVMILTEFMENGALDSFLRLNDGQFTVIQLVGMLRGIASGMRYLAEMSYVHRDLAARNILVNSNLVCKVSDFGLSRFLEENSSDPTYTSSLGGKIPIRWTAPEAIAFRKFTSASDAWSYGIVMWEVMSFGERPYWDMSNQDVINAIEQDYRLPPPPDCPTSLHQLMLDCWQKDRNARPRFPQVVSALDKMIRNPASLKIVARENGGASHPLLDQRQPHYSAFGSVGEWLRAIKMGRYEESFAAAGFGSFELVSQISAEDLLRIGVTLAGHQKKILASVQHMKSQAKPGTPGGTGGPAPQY
T29 sequence (Q16288 32-839): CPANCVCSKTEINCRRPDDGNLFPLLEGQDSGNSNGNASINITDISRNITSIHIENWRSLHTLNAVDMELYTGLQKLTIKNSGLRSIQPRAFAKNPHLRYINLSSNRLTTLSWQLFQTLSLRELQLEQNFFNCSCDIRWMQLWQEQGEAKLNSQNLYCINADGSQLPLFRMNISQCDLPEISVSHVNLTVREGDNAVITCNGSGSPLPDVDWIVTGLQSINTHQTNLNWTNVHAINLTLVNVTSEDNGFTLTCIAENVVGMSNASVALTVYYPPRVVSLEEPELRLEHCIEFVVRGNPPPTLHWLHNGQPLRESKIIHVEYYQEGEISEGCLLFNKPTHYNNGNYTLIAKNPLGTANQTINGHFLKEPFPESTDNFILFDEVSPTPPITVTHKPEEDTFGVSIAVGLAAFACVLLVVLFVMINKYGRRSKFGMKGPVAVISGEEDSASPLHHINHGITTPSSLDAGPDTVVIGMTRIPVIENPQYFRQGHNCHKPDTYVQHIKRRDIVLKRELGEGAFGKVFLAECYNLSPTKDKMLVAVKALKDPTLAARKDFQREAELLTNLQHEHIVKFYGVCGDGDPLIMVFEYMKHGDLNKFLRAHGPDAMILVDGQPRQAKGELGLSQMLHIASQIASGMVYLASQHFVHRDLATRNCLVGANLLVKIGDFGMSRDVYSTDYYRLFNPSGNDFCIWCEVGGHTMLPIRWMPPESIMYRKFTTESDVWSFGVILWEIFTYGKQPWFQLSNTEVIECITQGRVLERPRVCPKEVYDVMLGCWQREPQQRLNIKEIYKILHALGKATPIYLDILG
T13 sequence (Q9H2X6 whole entry, species assumed): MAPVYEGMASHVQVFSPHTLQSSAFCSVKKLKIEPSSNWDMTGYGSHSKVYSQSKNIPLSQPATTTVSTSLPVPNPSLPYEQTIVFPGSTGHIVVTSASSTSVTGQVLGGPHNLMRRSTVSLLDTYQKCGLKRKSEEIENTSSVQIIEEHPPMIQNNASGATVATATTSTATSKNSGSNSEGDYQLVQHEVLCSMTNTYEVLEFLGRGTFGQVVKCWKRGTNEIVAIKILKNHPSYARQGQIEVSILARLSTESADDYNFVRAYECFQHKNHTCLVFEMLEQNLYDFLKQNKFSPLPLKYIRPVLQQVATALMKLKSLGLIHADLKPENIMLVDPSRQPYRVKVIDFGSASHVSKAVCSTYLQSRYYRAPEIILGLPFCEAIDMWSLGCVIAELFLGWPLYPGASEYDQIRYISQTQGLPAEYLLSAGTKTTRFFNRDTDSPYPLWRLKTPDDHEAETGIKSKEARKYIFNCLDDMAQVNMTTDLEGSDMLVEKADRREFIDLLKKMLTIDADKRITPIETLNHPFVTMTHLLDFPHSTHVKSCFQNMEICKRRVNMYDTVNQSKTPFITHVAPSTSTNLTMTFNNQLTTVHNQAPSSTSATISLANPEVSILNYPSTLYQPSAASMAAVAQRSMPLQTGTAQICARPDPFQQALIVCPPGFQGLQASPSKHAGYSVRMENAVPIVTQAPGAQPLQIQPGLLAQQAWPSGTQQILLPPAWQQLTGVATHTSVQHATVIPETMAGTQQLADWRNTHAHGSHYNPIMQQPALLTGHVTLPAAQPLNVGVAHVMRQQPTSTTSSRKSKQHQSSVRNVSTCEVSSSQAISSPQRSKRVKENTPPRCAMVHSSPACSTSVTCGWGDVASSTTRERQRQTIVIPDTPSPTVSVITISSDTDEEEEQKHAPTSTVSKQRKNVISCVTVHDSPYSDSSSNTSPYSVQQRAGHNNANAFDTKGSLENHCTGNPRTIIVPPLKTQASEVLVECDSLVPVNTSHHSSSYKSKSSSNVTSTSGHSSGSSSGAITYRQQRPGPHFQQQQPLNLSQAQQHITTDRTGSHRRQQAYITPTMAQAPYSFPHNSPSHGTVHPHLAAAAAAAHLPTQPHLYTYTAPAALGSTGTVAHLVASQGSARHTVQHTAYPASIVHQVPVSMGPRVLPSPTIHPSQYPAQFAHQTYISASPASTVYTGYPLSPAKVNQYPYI
T31 sequence (P43403 whole entry): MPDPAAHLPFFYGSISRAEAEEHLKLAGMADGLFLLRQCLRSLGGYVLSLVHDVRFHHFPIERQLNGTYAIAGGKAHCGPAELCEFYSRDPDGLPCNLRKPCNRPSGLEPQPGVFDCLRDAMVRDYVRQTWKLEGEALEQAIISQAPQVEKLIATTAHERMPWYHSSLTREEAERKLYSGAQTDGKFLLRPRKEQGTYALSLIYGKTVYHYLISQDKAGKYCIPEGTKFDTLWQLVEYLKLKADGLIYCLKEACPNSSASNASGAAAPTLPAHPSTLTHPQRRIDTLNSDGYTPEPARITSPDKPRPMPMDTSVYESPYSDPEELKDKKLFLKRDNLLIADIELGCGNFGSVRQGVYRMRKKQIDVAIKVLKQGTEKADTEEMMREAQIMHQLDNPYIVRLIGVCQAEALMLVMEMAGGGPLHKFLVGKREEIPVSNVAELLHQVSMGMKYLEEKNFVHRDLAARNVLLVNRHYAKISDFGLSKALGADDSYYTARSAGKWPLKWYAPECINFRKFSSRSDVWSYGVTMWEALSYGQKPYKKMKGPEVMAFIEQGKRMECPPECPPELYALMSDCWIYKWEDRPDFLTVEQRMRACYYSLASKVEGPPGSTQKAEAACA

In the case of `O=C(N/N=C1\CCc2c(Cl)ccc(O)c21)c1cccc(S(=O)(=O)N2CCOCC2)c1` [ZY0511, (E)‐N'‐(2, 3‐dihydro‐1H‐inden‐1‐ylidene) benzohydrazides], the Activation rate [1] is reported as 6%, the inhibition at 1 µM [2] is reported as 21% and the inhibition at 1 µM [3] is reported as 4%. The activation at 1 µM [4] was 5%, the inhibition at 1 µM [5] was 5% and the inhibition at 1 µM ([6]; DNA-PK, ZY0511 1 µM, read-out: Inhibition rate) was 60%. It also gave an IC50 ([6]; DNA‐PK) of over 10 µM, an activation at 1 µM [7] of 5% and an inhibition at 1 µM [8] of 3%. It also gave an inhibition at 1 µM [9] of 14%, an inhibition at 1 µM [10] of 47% and an inhibition at 1 µM [11] of 24%. The inhibition at 1 µM [12] was 8%, the inhibition at 1 µM [13] was 13% and the activation at 1 µM ([14]; IGF-1R, ZY0511 1 µM, read-out: Activation rate) was 185%. For the same compound, the IC50 ([14]; IGF‐1R) was over 10 µM, the activation at 1 µM [15] was 13% and the activation at 1 µM [16] was 1%. The inhibition at 1 µM [17] was 15%, the inhibition at 1 µM [18] was 6% and the inhibition at 1 µM [19] was 20%. The inhibition at 1 µM [20] was 2%, the inhibition at 1 µM [21] was 6% and the inhibition at 1 µM [22] was 4%. For the same compound, the inhibition at 1 µM [23] was 10%, the inhibition at 1 µM [24] was 11% and the inhibition at 1 µM [25] was 4%. For the same compound, the inhibition at 1 µM [26] was 1%, the inhibition at 1 µM [27] was 50% and the activation at 1 µM [28] was 3%. The inhibition at 1 µM [29] was 7%, the inhibition at 1 µM [30] was 0% and the activation at 1 µM [31] was 4%. For the same compound, the inhibition at 1 µM [32] was 7%, the activation at 1 µM [33] was 4% and the apoptotic rate [34] was 6.98%. For the same compound, the apoptotic rate [35] was 6.49%.
